Measurements taken from patent US20260357266A1, “COMPOSITION FOR KILLING A THERAPY-INDUCED SENESCENCE (TIS) CELLS AND USES THEREOF” (AJOU UNIVERSITY INDUSTRY-ACADEMIC COOPERATION FOUNDATION, priority 2022, published 2026).

Columns and labels:
[1] = system: MCF7 control cells and TIS cells; test: CCK8 assay and microscopy, senolytic effect on control and therapy-induced senescent (TIS) MCF7 cells; assay type: cell-based; settings: for cell viability, TIS group compared to control group: CCK8, MCF7, FIG. 3b
Procedure: FIGS. 3d and 3e show the results of CCK8 assay and microscopy performed to evaluate the cell killing effect of SGI-1776 after treating MCF7 cells (Ctrl and TIS) with another PIM1 kinase inhibitor, SGI-1776 (Selleckhem, Catalog No. S2198, CAS 1025065-69-3).
Therapy-induced senescent breast cancer cells were treated with the FDA-approved inhibitors (Table 1) for the 23 genes finally selected in Example 2, the senescent cell-selective cell division inhibitory effect and senolytic effect of the drugs were evaluated by CCK8 assay (D-Plus CCK, cell viability assay kit, Cat CCK-3000, Dong-In LS) (FIG. 3A). In this case, for the control group (cancer cells without therapy-induced senescence), the measurement was made after treatment with the inhibitor at the indicated concentration for 48 hours, and for the therapy-induced senescent cell group, the cancer cells were induced to senescence by treatment with adriamycin for 48 hours as described in Example 1, and then treated with the indicator at the indicated concentration for 48 hours while replacing the culture medium, the inhibitor was treated at the indicated concentration for 48 hours, and then the measurement was made.

[2] = system: senescent cell types, including senescent cancer cells; settings: literature (Aging Cell 15, 428-435 (2016); Nat. Med. 22, 78-83 (2016)); cited from earlier work
[3] = system: SNU601, HSC4, and SW480 cells (control and TIS); test: CCK8 assay and microscopy, senolytic effect on control and TIS gastric, head and neck and colon cancer cells; assay type: cell-based; settings: FIG. 5
Procedure: FIGS. 5a and 5b show the results of microscopy and CCK8 assay performed to evaluate the cell killing effect of PIM 1/2 inhibitor VI on control (Ctrl) cells and therapy-induced senescent (TIS) cells after treating cancer cell lines (HSC4: head and neck cancer, SNU601: gastric cancer, and SW480: colon cancer) with PIM 1/2 inhibitor VI.
Therapy-induced senescent breast cancer cells were treated with the FDA-approved inhibitors (Table 1) for the 23 genes finally selected in Example 2, the senescent cell-selective cell division inhibitory effect and senolytic effect of the drugs were evaluated by CCK8 assay (D-Plus CCK, cell viability assay kit, Cat CCK-3000, Dong-In LS) (FIG. 3A). […]
In order to evaluate the senolytic effect of a Pim-1 kinase inhibitor on gastric cancer (SNU601), head and neck cancer (HSC4), and colon cancer (SW480) cell lines induced to senescence by treatment, the concentration-dependent senolytic effect of the Pim-1 kinase inhibitor was evaluated in the same manner as described in Example 3.

[4] = system: breast cancer cell lines (MCF7, ZR75-1, Hs578T, and MDA-MB-231); test: Cell size and SA-β-gal staining after therapy-induced senescence by adriamycin; assay type: cell-based; settings: 100 nM adriamycin for 48 h, then medium replaced and cultured 5 to 7 days
Procedure: (§1) To generate therapy-induced senescent tumor cells, breast cancer cell lines with contrasting characteristics (MCF7 and ZR75-1, which are female hormone receptor-positive but relatively less malignant, and Hs578T and MDA-MB-231, which are hormone receptor- and HER2 receptor-negative triple-negative breast cancer cell lines and are relatively more aggressive) were each treated with 100 nM of adriamycin (Selleckhem, Catalog No. S1208, CAS 25316-40-9). After 48 hours, the cell culture medium was replaced and the cells were cultured for 5 to 7 days, thereby generating therapy-induced senescent tumor cells.

p21 = p21 mRNA expression after therapy-induced senescence by adriamycin; assay type: cell-based; settings: 100 nM adriamycin for 48 h, then medium replaced and cultured 5 to 7 days; MCF7, ZR75-1, Hs578T, MDA-MB-231
Procedure: as §1

[5] = system: various cancer cell lines (MCF7, MDA-MB 231, MKN1, HSC4, and SNU869); test: Therapy-induced senescence by cisplatin in various cancer cell lines; assay type: cell-based; settings: 10 μM cisplatin; MCF7, MDA-MB 231, MKN1, HSC4, SNU869
Procedure: (§2) In addition, in order to examine whether therapy-induced senescence (TIS) occurs even when using anticancer agents other than adriamycin, various cancer cell lines (MCF7, MDA-MB 231, MKN1, HSC4, and SNU869) were treated with 10 μM of cisplatin (Selleckhem, Catalog No. S1166 CAS 15663-27-1).

PIM-1 kinase = PIM-1 kinase mRNA/protein expression after therapy-induced senescence; assay type: cell-based; settings: 10 μM cisplatin; MCF7, MDA-MB 231, MKN1, HSC4, SNU869
Description: In addition to breast cancer cell lines (MCF7 and MDA-MB231), gastric cancer (SNU601, MKN1, and MKN74), colon cancer (SW480, and Hct116), head and neck cancer (HSC4), cervical cancer (HeLa S3), cholangiocarcinoma (SNU308, SNU478, and SNU1196), pancreatic adenocarcinoma (BxPC3), and prostate cancer (PC3) cell lines were induced to senescence by treatment in the same manner as in Example 1, thereby obtaining therapy-induced senescent cells.
as §2

## CC1(C)CCC(c2ccc(Cl)cc2)=C(CN2CCN(c3ccc(C(=O)NS(=O)(=O)c4ccc(N[C@H](CCN5CCOCC5)CSc5ccccc5)c(S(=O)(=O)C(F)(F)F)c4)cc3)CC2)C1 [ABT-263]
[1]
  cell viability, TIS group compared to control group: significantly inhibited in a therapy-induced senescent cell group compared to a control group
[1]; FIGS. 3B and 3C
  killing effect on both control and TIS cells: almost complete killing effect on both the control and TIS cells
[1]; FIGS. 3B and 3C, difference between control and TIS cells
  killing effect, control vs TIS cells: significant difference between the killing effect on the control cell and the killing effect on the TIS cells
[2]
  elimination of senescent cell types: able to effectively eliminate a wide range of senescent cell types, including senescent cancer cells

## CCCOc1ccc(/C=C2\SC(=O)NC2=O)cc1 [PIM1/2 kinase inhibitor VI]
[1]
  cell viability, TIS group compared to control group: significantly inhibited in a therapy-induced senescent cell group compared to a control group
[1]; CCK8, inhibitor 48 h, TIS by adriamycin vs control, FIG. 3A
  selective senolytic effect on therapy-induced senescent tumor cells: exhibited a selective senolytic effect on the therapy-induced senescent tumor cells
[1]; FIGS. 3B and 3C, TIS cells
  killing effect on TIS cells: effectively killed the TIS cells
[1]; FIGS. 3B and 3C, control cells, high concentrations
  cell growth and killing of control cells: inhibited cell growth in the control cells at high concentrations but hardly killed the control cells
[1]; FIGS. 3B and 3C, versus ABT-263
  senolytic effect on senescent cells compared with ABT-263: significantly superior to that of ABT-263
[1]; summary statement, tumor cells induced to senescence by a chemotherapeutic agent
  killing effect on therapy-induced senescent tumor cells compared to normal tumor cells: a significant killing effect was observed on the therapy-induced senescent tumor cells compared to normal tumor cells
[3]; SNU601, HSC4, SW480 TIS cells
  killing effect on therapy-induced senescent cancer cells: significant killing effect on the therapy-induced senescent cancer cells
[3]; SNU601, HSC4, SW480 control cells
  killing effect on control cells: no significant killing effect on the control cells

## CN1CCC(CNc2ccc3ncc(-c4cccc(OC(F)(F)F)c4)n3n2)CC1 [SGI-1776]
[1]; FIG. 3D, MCF7
  cytotoxicity to TIS cells compared to control cells: high cytotoxicity to the TIS cells compared to the control cells

## COc1cccc2c1C(=O)c1c(O)c3c(c(O)c1C2=O)C[C@@](O)(C(=O)CO)C[C@@H]3O[C@H]1C[C@H](N)[C@H](O)[C@H](C)O1 [adriamycin]
[4]
  cell size: the cell size of each breast cancer cell line increased
  number of cells positive to SA-b-gal: the number of cells positive to SA-b-gal, a senescence marker, increased
p21
  mRNA expression of p21: increase significantly in each cell line

## N.N.[Cl][Pt][Cl] [cisplatin]
[5]
  occurrence of therapy-induced senescence (TIS): therapy-induced senescence (TIS) occurred
PIM-1 kinase
  mRNA expression of the PIM-1 kinase gene: significantly increased
